Laboratory results taken from the supplement of paper PMC10307832.

Assays:
Test in all cases: relative viability (nuclei count vs DMSO), 5 days (fraction); higher = more cells survive
Bexarotene + Olaparib = compound: C=C(c1ccc(C(=O)O)cc1)c1cc2c(cc1C)C(C)(C)CCC2(C)C [Bexarotene] + O=C(c1cc(Cc2n[nH]c(=O)c3ccccc23)ccc1F)N1CCN(C(=O)C2CC2)CC1 [Olaparib] (partner 8 µM)
How it was run: (§1)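 Lung cancer cell lines were seeded in 1536-well plates and dosed by pin tool the next day, with either a single drug or a fixed anchor-drug dose combined with five library-drug doses (not always all listed) spaced in √10 steps. Five days later, one step fixed the cells and stained their nuclei (final 0.05% Triton X-100, 1% formaldehyde, 1 ug/ml Hoechst), and nuclei were counted on 4× images. Relative viability is the nuclei count in treated wells divided by the count in vehicle wells, and each value is the median of duplicate plates.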

Bexarotene + Bortezomib = compound: C=C(c1ccc(C(=O)O)cc1)c1cc2c(cc1C)C(C)(C)CCC2(C)C [Bexarotene] + CC(C)C[C@H](NC(=O)[C@H](Cc1ccccc1)NC(=O)c1cnccn1)B(O)O [Bortezomib] (partner 0.002 µM)
How it was run: as §1

Bexarotene + Pemetrexed = compound: C=C(c1ccc(C(=O)O)cc1)c1cc2c(cc1C)C(C)(C)CCC2(C)C [Bexarotene] + Nc1nc2[nH]cc(CCc3ccc(C(=O)N[C@@H](CCC(=O)O)C(=O)O)cc3)c2c(=O)[nH]1 [Pemetrexed] (partner 0.2 µM)
How it was run: as §1

Bexarotene + Alpelisib = compound: C=C(c1ccc(C(=O)O)cc1)c1cc2c(cc1C)C(C)(C)CCC2(C)C [Bexarotene] + Cc1nc(NC(=O)N2CCC[C@H]2C(N)=O)sc1-c1ccnc(C(C)(C)C(F)(F)F)c1 [Alpelisib] (partner 2 µM)
How it was run: as §1

Row | Cell Line | relative viability (Bexarotene + Olaparib; first compound 0.08 µM) | relative viability (Bexarotene + Olaparib; first compound 0.253 µM) | relative viability (Bexarotene + Olaparib; first compound 0.8 µM) | relative viability (Bexarotene + Olaparib; first compound 2.53 µM) | relative viability (Bexarotene + Olaparib; first compound 8 µM) | relative viability (Bexarotene + Bortezomib; first compound 0.08 µM) | relative viability (Bexarotene + Bortezomib; first compound 0.253 µM) | relative viability (Bexarotene + Bortezomib; first compound 0.8 µM) | relative viability (Bexarotene + Bortezomib; first compound 2.53 µM) | relative viability (Bexarotene + Bortezomib; first compound 8 µM) | relative viability (Bexarotene + Pemetrexed; first compound 0.08 µM) | relative viability (Bexarotene + Pemetrexed; first compound 0.253 µM) | relative viability (Bexarotene + Pemetrexed; first compound 0.8 µM) | relative viability (Bexarotene + Pemetrexed; first compound 2.53 µM) | relative viability (Bexarotene + Pemetrexed; first compound 8 µM) | relative viability (Bexarotene + Alpelisib; first compound 0.08 µM) | relative viability (Bexarotene + Alpelisib; first compound 0.253 µM) | relative viability (Bexarotene + Alpelisib; first compound 0.8 µM) | relative viability (Bexarotene + Alpelisib; first compound 2.53 µM) | relative viability (Bexarotene + Alpelisib; first compound 8 µM)
1 | HCC-78 | 0.756 | 0.984 | 0.769 | 0.883 | 0.835 | 0.442 | 0.453 | 0.491 | 0.524 | 0.5 | 0.903 | 0.636 | 0.821 | 0.919 | 0.89 | 0.315 | 0.268 | 0.28 | 0.25 | 0.259
2 | HCC-366 | 0.346 | 0.494 | 0.381 | 0.388 | 0.369 | 1.07 | 0.979 | 1.02 | 1.08 | 1.06 | 0.203 | 0.14 | 0.2 | 0.141 | 0.17 | 0.529 | 0.408 | 0.411 | 0.489 | 0.463
3 | HCC-827 | 0.714 | 0.637 | 0.763 | 0.666 | 0.625 | 0.994 | 1.11 | 0.992 | 0.989 | 1 | 0.285 | 0.271 | 0.263 | 0.317 | 0.245 | 1.05 | 0.844 | 0.969 | 1.04 | 0.917
4 | HOP-62 | 0.452 | 0.711 | 0.56 | 0.43 | 0.371 | 0.611 | 1.05 | 0.916 | 0.645 | 0.81 | 0.332 | 0.297 | 0.336 | 0.314 | 0.361 | 1.35 | 1.4 | 1.03 | 1.12 | 0.917
5 | IA-LM | 0.752 | 0.707 | 0.675 | 0.576 | 0.63 | 0.683 | 0.697 | 0.596 | 0.662 | 0.518 |  |  |  |  |  | 0.771 | 0.702 | 0.67 | 0.581 | 0.669
6 | LC-2-ad | 0.711 | 0.693 | 0.663 | 0.541 | 0.661 | 0.936 | 1.16 | 1.09 | 0.936 | 0.985 | 0.294 | 0.279 | 0.28 | 0.247 | 0.302 | 0.872 | 1.15 | 0.762 | 0.96 | 0.861
7 | LK-2 | 0.97 | 0.632 | 0.981 | 0.652 | 0.841 |  |  |  |  |  | 0.353 | 0.292 | 0.285 | 0.275 | 0.238 | 1.15 | 1.12 | 1.12 | 1.25 | 1.15
8 | NCI-H358 | 0.855 | 0.596 | 0.573 | 0.625 | 0.551 |  |  |  |  |  | 0.182 | 0.184 | 0.144 | 0.167 | 0.158 | 1.07 | 0.881 | 0.579 | 1.03 | 0.923
9 | NCI-H727 | 0.778 | 0.694 | 0.804 | 0.691 | 0.807 | 1.21 | 0.735 | 0.899 | 0.822 | 0.955 |  |  |  |  |  | 0.808 | 0.522 | 0.503 | 0.58 | 0.701
10 | NCI-H1299 | 0.951 | 0.967 | 0.917 | 0.882 | 0.895 | 1.07 | 1.1 | 1.04 | 1.02 | 1.06 |  |  |  |  |  | 1.05 | 1.13 | 1.12 | 1.05 | 1.05
11 | NCI-H1395 | 0.441 | 0.543 | 0.476 | 0.459 | 0.504 |  |  |  |  |  | 0.885 | 0.929 | 0.808 | 0.9 | 0.931 | 1.18 | 1.06 | 0.93 | 1.03 | 1.08
12 | NCI-H1563 |  |  |  |  |  | 0.9 | 0.814 | 0.741 | 0.83 | 0.98 | 0.753 | 0.632 | 0.745 | 0.682 | 0.85 | 0.947 | 0.804 | 0.955 | 0.973 | 0.839
13 | NCI-H1648 | 0.927 | 1.34 | 0.712 | 0.766 | 0.685 |  |  |  |  |  | 0.897 | 0.738 | 0.676 | 0.585 | 0.619 |  |  |  |  | 
14 | NCI-H1650 | 0.769 | 0.674 | 0.797 | 0.697 | 0.7 | 0.218 | 0.21 | 0.178 | 0.204 | 0.227 | 0.353 | 0.371 | 0.352 | 0.379 | 0.432 |  |  |  |  | 
15 | NCI-H1703 | 0.532 | 0.494 | 0.483 | 0.386 | 0.377 | 0.254 | 0.253 | 0.258 | 0.227 | 0.27 |  |  |  |  |  | 0.423 | 0.364 | 0.402 | 0.242 | 0.324
16 | NCI-H1793 | 1.06 | 0.966 | 0.787 | 0.903 | 0.695 |  |  |  |  |  | 0.972 | 0.828 | 0.79 | 0.845 | 0.852 | 0.956 | 0.81 | 0.81 | 0.727 | 0.824
17 | NCI-H1944 | 0.625 | 0.573 | 0.617 | 0.602 | 0.494 |  |  |  |  |  | 0.822 | 0.758 | 0.857 | 0.724 | 0.75 | 1.08 | 1.05 | 0.913 | 0.954 | 0.867
18 | NCI-H2170 | 0.576 | 0.645 | 0.574 | 0.609 | 0.562 |  |  |  |  |  | 0.265 | 0.272 | 0.254 | 0.258 | 0.27 | 0.762 | 0.777 | 0.782 | 0.759 | 0.66
19 | NCI-H2342 | 0.425 | 0.52 | 0.481 | 0.407 | 0.583 |  |  |  |  |  | 0.827 | 0.739 | 0.747 | 0.825 | 0.797 |  |  |  |  | 
20 | SK-MES-1 | 0.798 | 0.832 | 0.696 | 0.628 | 0.564 |  |  |  |  |  | 1.04 | 1.12 | 1.08 | 0.961 | 0.735 | 1.06 | 0.948 | 0.961 | 0.893 | 0.956
21 | SW 900 | 0.936 | 0.733 | 1.11 | 0.866 | 0.863 |  |  |  |  |  | 0.509 | 0.465 | 0.456 | 0.454 | 0.477 |  |  |  |  | 
